The subject of test [1] is human rhinovirus serotypes, panel B. Nature of the test: MIC50/MIC80 over panel B of 10 human rhinovirus serotypes (HeLa cell CPE). The test is classed as cell-based. The following applies: for MIC80: minimum concentration required to inhibit 80% of the tested serotypes. Here is the method: (§1) They are useful in inhibiting virus replication in vitro and are primarily active against picornaviruses, including enteroviruses, echovirus and coxsackie virus, especially rhinoviruses. […] The test procedure used was as follows: The MIC values were determined by an automated tissue culture infectious dose 50% (TCID-50) assay. HeLa cells in monoloyers in 96-well cluster plates were infected with a dilution of virus which had been shown empirically to produce 80% to 100% cytopathic effect (CPE) in 3 days in the absence of drug. The compound to be tested was serially diluted through 10, 2-fold cycles and added to the infected cells. After a 3 day incubation at 33° C. and 2.5% carbon dioxide, the cells were fixed with a 5% solution of glutaraldehyde followed by staining with a 0.25% solution of crystal violet in water. The plates were then rinsed, dried, and the amount of stain remaining in the well (a measure of intact cells) was quantitated with an optical density reader. The MIC was determined to be the concentration of compound which protected 50% of the cells from virus-induced CPE relative to an untreated virus control.
(§2) In the above test procedures, representative compounds of formula I were tested against some the serotypes from either a panel of fifteen human rhinovirus (HRV) serotypes, (noted in the table as panel T) namely, HRV-2, -14, -1A, -1B, -6, -21, -22, -15, -25, -30, -50, -67, -89, -86 and -41 or against some of the serotypes from a panel of 10 human rhinovirus serotypes namely HRV-3, -4, -5, -9, -16, -18, -38, -66, -75 and -61, (noted in the table as panel B) and the MIC value, expressed in micrograms per milliliter ([…]), for each rhinovirus serotype was determined for each virus, example 1e is given as an example of the data. Then MIC50 and MIC80 values, which are the minimum concentrations of the compound required to inhibit 50% and 80%, respectively, of the tested serotypes were determined.
(§3) The following Table gives the test results for representative compounds of the invention. The panel of viruses used in the test appears before the MIC80 and MIC50 figure and the number of serotypes which the compound is tested against (N) is indicated after the MIC80 and MIC50 figure.

Test [2] relates to human rhinovirus (HRV) serotypes, panel T. Nature of the test: MIC50/MIC80 over panel T of fifteen human rhinovirus serotypes (HeLa cell CPE). The test is classed as cell-based. The following applies: for MIC50: minimum concentration required to inhibit 50% of the tested serotypes; for MIC80: minimum concentration required to inhibit 80% of the tested serotypes. Here is the method:
as §1, §2, §3

We go through 28 compounds from patent publication US5464848A, “1,2,4-oxadiazolyl-phenoxyalkylisoxazoles and their use as antiviral agents” (Sterling Winthrop Inc., priority 1993, dated 1995).

In brackets after ≈: the same amount, converted by molar mass.

In test [1] (Human rhinovirus sp., 72 h), `Cc1cc(CCCOc2c(C)cc(-c3noc(C(F)(F)F)n3)cc2F)on1` [Example 60h, 5-{3-[2-Fluoro-6-methyl-4-(5-trifluoromethyl-1,2,4-oxadiazol-3-yl)phenoxy]propyl}-3-methylisoxazole] showed an MIC50 of 0.328 µg/mL (≈ 0.851 µM). This compound came in with an MIC80 in test [1] (panel B) of 0.0315 µg/mL (≈ 0.0818 µM).
In test [1] (panel B, minimum concentration required to inhibit 50% of the tested serotypes), “5-{3-[2,6-Dimethyl-4-(5-difluoromethyl-1,2,4-oxadiazol-3-yl)phenoxy]-propyl}-3-methylisoxazole [Example 49g]” returned an MIC50 of 99 µg/mL. For the same compound, the MIC80 in test [1] (panel B) came out at 49.859 µg/mL.
`Cc1cc(-c2noc(C(F)(F)F)n2)cc(C)c1OCCCc1onc(C)c1Br` [Example 57] displayed an MIC50 in test [1] (Human rhinovirus sp., 72 h) of 99 µg/mL (≈ 215 µM). In test [1] (panel B), the MIC80 turned out to be 99 µg/mL (≈ 215 µM).
Compound `Cc1cc(CCCOc2c(C)cc(-c3noc(C(F)(F)Cl)n3)cc2C)on1` [Example 54a, 5-{3-[2,6-Dimethyl-4-(5-difluorochloromehyl-1,2,4-oxadiazol-3-yl)phenoxy]-propyl}-3-methylisoxazole] yielded an MIC50 in test [1] (Human rhinovirus sp., 72 h) of 49.6 µg/mL (≈ 125 µM). In test [1] (panel B), this compound returned an MIC80 of 0.016 µg/mL (≈ 0.0402 µM).
In test [2] (Human rhinovirus sp., 72 h), `Cc1cc(CCCOc2c(C)cc(-c3noc(C(F)F)n3)cc2C)on1` [Example 14, 5-{3-[4-(5-Difluoromethyl-1,2,4-oxadiazol-3-yl)-2,6-dimethyl-phenoxy]propyl}-3-methylisoxazole] yielded an MIC50 of 0.054 µg/mL (≈ 0.149 µM). In test [2], the MIC80 was found to be 0.022 µg/mL (≈ 0.0605 µM).
`COCc1nc(-c2cc(C)c(OCCCc3cc(C)no3)c(C)c2)no1` [Example 5, 5-{3-[2,6-Dimethyl-4-(5-methoxymethyl-1,2,4-oxadiazol-3-yl)phenoxy]propyl}-3-methylisoxazole]: the MIC50 in test [2] (Human rhinovirus sp., 72 h) is 0.153 µg/mL (≈ 0.428 µM). Besides, the MIC80 in test [2] was found to be 0.037 µg/mL (≈ 0.104 µM).
The corresponding values for `Cc1cc(-c2noc(C3CC3)n2)cc(C)c1OCCCc1cc(C2CC2)no1` [Example 27] are 0.142 µg/mL (≈ 0.374 µM) and 0.087 µg/mL (≈ 0.229 µM).
Compound `CCOC(=O)c1cc(CCCOc2c(C)cc(-c3noc(C(F)(F)F)n3)cc2C)on1` [Example 56d, 5-{3-[2,6-Dimethyl-4-(5-trifluoromethyl-1,2,4-oxadiazol-3-yl)phenoxy]propyl}-3-(ethoxycarbonyl)isoxazole] came in with an MIC50 in test [2] (Human rhinovirus sp., 72 h) of 1.47 µg/mL (≈ 3.33 µM). The compound also had an MIC80 in test [2] of 0.634 µg/mL (≈ 1.44 µM).
On the same counts, the results for `Cc1cc(CCCOc2c(C)cc(-c3noc(C(F)F)n3)cc2Cl)on1` [Example 49d, 5-{3-[2,-Methyl-6-Chloro-4-(5-difluoromethyl-1,2,4-oxadiazol-3-yl)phenoxy]-propyl}-3-methylisoxazole] are 99 µg/mL (≈ 258 µM) and 99 µg/mL (≈ 258 µM).
`Cc1cc(-c2noc(C(F)(F)F)n2)cc(C)c1OCCCc1cc(C2CC2)no1` [Example 23, 3-Cyclopropyl-5-{3-[2,6-dimethyl-4-(5-trifluoromethyl-1,2,4-oxadiazol-3-yl)phenoxy]propyl}-isoxazole] came in with an MIC50 in test [2] (Human rhinovirus sp., 72 h) of 0.625 µg/mL (≈ 1.53 µM). The compound also gave an MIC80 in test [2] of 0.204 µg/mL (≈ 0.501 µM).
The corresponding values for `CN=c1[nH]c(-c2cc(C)c(OCCCc3cc(C)no3)c(C)c2)no1` [Example 18, 5-{3-[2,6-Dimethyl-4-(5-methylimino-4,5-dihydro-1,2,4-oxadiazol-3-yl)phenoxy]propyl}-3-methylisoxazole] are 0.325 µg/mL (≈ 0.949 µM) and 0.128 µg/mL (≈ 0.374 µM).
On the same counts, the results for `Cc1cc(-c2noc(C(F)(F)F)n2)cc(C)c1OCCCc1cc(CCO)no1` [Example 33, 5-{3-[2,6-Dimethyl-4-(5-trifluoromethyl-1,2,4-oxadiazol-3-yl)-phenoxy]propyl}-3-(2-hydroxyethyl)isoxazole] are 0.102 µg/mL (≈ 0.248 µM) and 0.045 µg/mL (≈ 0.109 µM).
The compound `Cc1cc(CCCCCOc2c(Cl)cc(-c3noc(C(F)(F)F)n3)cc2Cl)on1` [Example 31c, 5-{5-[2,6-Dichloro-4-(5-trifluoromethyl-1,2,4-oxadiazol-3-yl)-phenoxy]pentyl}-3-methylisoxazole] returned an MIC50 in test [2] (Human rhinovirus sp., 72 h) of 99 µg/mL (≈ 220 µM). Besides, the MIC80 in test [2] stood at 0.533 µg/mL (≈ 1.18 µM).
On to `Cc1cc(CCCOc2ccc(-c3noc(C(F)(F)F)n3)cc2)on1` [Example 32c, 3-Methyl-5-{3-[4-(5-trifluoromethyl-1,2,4-oxadiazol-3-yl) -phenoxy]propyl}isoxazole], for which, in test [2] (Human rhinovirus sp., 72 h), the MIC50 was found to be 99 µg/mL (≈ 280 µM). For the same compound, the MIC80 in test [2] came to 2.86 µg/mL (≈ 8.1 µM).
`CCOC(=O)c1nc(-c2cc(C)c(OCCCc3cc(C)no3)c(C)c2)no1` [Example 7, 5-{3-[2,6-Dimethyl-4-(5-ethoxycarbonyl-1,2,4-oxadiazol-3-yl)phenoxy]propyl}-3-methylisoxazole]: the MIC50 in test [2] (Human rhinovirus sp., 72 h) is 99 µg/mL (≈ 257 µM). For the same compound, in test [2], the MIC80 came out at 99 µg/mL (≈ 257 µM).
Take `CSc1nc(-c2cc(C)c(OCCCc3cc(C)no3)c(C)c2)no1` [Example 58d, 5-{3-[2,6-dimethyl-4-(5-methylthio-1,2,4-oxadiazol-3-yl)phenoxy]-propyl}-3-methylisoxazole]: the MIC50 in test [2] (Human rhinovirus sp., 72 h) is 99 µg/mL (≈ 275 µM). The compound further displayed an MIC80 in test [2] of 99 µg/mL (≈ 275 µM).
`Cc1cc(CCCOc2c(C)cc(-c3noc(CF)n3)cc2C)on1` [Example 6, 5-{3-[2,6-Dimethyl-4-(5-fluoromethyl-1,2,4-oxadiazol-3-yl)phenoxy]propyl}-3-methylisoxazole] displayed an MIC50 in test [2] (Human rhinovirus sp., 72 h) of 0.073 µg/mL (≈ 0.211 µM). This compound gave an MIC80 in test [2] of 0.046 µg/mL (≈ 0.133 µM).
The corresponding values for `Cc1cc(CCCOc2c(C)cc(-c3noc(C(Cl)Cl)n3)cc2C)on1` [Example 13, 5-{3-[4-(5-Dichloromethyl-1,2,4-oxadiazol-3-yl)-2,6-dimethyl-phenoxy]propyl}-3-methylisoxazole] are 0.266 µg/mL (≈ 0.671 µM) and 0.145 µg/mL (≈ 0.366 µM).
On the same counts, the results for `Cc1cc(CCCOc2c(C)cc(-c3nc(C(F)(F)F)no3)cc2C)on1` [Example 46c] are 0.197 µg/mL (≈ 0.517 µM) and 0.1 µg/mL (≈ 0.262 µM).
On the same counts, the results for `CC(=O)OC(C)c1nc(-c2cc(C)c(OCCCc3cc(C)no3)c(C)c2)no1` (centres unmarked) [Example 11, 5-{3-[2,6-Dimethyl-4-(5-(1-methylcarbonyloxy-ethyl)-1,2,4-oxadiazol-3-yl)phenoxy]propyl}-3-methylisoxazole] are 1.98 µg/mL (≈ 4.97 µM) and 0.2485 µg/mL (≈ 0.622 µM).
Compound `Cc1cc(CCCOc2c(C)cc(-c3noc(=O)[nH]3)cc2C)on1` [Example 8, 5-{3-[2,6-Dimethyl-4-(5-oxo-4,5-dihydro-1,2,4-oxadiazol-3-yl)phenoxy]propyl}-3-methylisoxazole] had an MIC50 in test [2] (Human rhinovirus sp., 72 h) of 99 µg/mL (≈ 301 µM). Moreover, the MIC80 in test [2] was 99 µg/mL (≈ 301 µM).
`CCOc1nc(-c2cc(C)c(OCCCc3cc(C)no3)c(C)c2)no1` [Example 17, 5-{3-[2,6-Dimethyl-4-(5-ethoxy-1,2,4-oxadiazol-3-yl)phenoxy]propyl}-3-methylisoxazole] had an MIC50 in test [2] (Human rhinovirus sp., 72 h) of 0.116 µg/mL (≈ 0.325 µM). Besides, the MIC80 in test [2] is 0.055 µg/mL (≈ 0.154 µM).
The corresponding values for `CCOc1cc(CCCOc2c(C)cc(-c3noc(C4CC4)n3)cc2C)on1` [Example 37, 5-{3-[4-(5-Cyclopropyl-1,2,4-oxadiazol-3-yl)-2,6-dimethyl-phenoxy]propyl}-3-ethoxyisoxazole] are 0.352 µg/mL (≈ 0.918 µM) and 0.91 µg/mL (≈ 2.37 µM).
Consider `Cc1cc(CCCOc2c(C)cc(-c3noc(C(N)=O)n3)cc2C)on1` [Example 38, 5-{3-[4-(5-Aminocarbonyl-1,2,4-oxadiazol-3-yl)-2,6-dimethyl-phenoxy]propyl}-3-methylisoxazole], for which, in test [2] (Human rhinovirus sp., 72 h), the MIC50 stood at 99 µg/mL (≈ 278 µM). The compound further registered an MIC80 in test [2] of 0.839 µg/mL (≈ 2.35 µM).
On the same counts, the results for `Cc1cc(CCCOc2c(Cl)cc(-c3noc(C(F)(F)F)n3)cc2C#N)on1` [Example 61e, 5-{3-[4-(5-Trifluoromethyl-1,2,4-oxadiazol-3-yl)2-cyano-6-chlorophenoxy]-propyl}-3-methylisoxazole] are 0.706 µg/mL (≈ 1.71 µM) and 0.3355 µg/mL (≈ 0.813 µM).
In test [2], “5-{3-[4-(5-Trifluoromethyl-1,2,4-oxadiazol-3-yl)2-cyano-6-chlorophenoxy]-propyl}-3-methylisoxazole [Example 62f]” came in with an MIC50 of 0.213 µg/mL and an MIC80 of 0.09 µg/mL.
In test [2] (Human rhinovirus sp., 72 h), `Cc1cc(CCCOc2c(C)cc(-c3noc(CC(F)(F)F)n3)cc2C)on1` [Example 43, 5-{3-[2,6-Dimethyl-4-(5-(2,2,2-trifluoroethyl)-1,2,4-oxadiazol-3-yl)phenoxy]propyl}-3-methylisoxazole] returned an MIC50 of 99 µg/mL (≈ 250 µM). The MIC80 in test [2] is 99 µg/mL (≈ 250 µM).
`Cc1cc(CCCCCOc2c(C)cc(-c3noc(C(F)(F)F)n3)cc2C)on1` [Example 30c, 5-{5-[2,6-Dimethyl-4-(5-trifluoromethyl-1,2,4-oxadiazol-3-yl)-phenoxy]pentyl}-3-methylisoxazole] had an MIC50 in test [2] (Human rhinovirus sp., 72 h) of 0.694 µg/mL (≈ 1.7 µM). This compound also returned an MIC80 in test [2] of 0.225 µg/mL (≈ 0.55 µM).
